Source: EP0407582A1, “DERIVATIVES OF TRICHLOROPHOSPHAS[…] INSECTICIDAL, VIRICIDAL, HEMATOCIDAL, FUNGICIDAL AND OVOCIDAL PREPARATIONS BASED ON THEM” (priority 1989, dated 1990)
Where two headings read alike, the source gives them in different places.

How the values were obtained:
domestic flies [1] = experiment: Insecticidal activity, laboratory test in gauze boxes; format: in vivo; details: 0.25% solution in 5% aqueous glucose solution; death rate estimated in 48 - 72 hours
Description: An insecticidal composition based thereon, which was a 0.25% solution of this compound in a 5% aqueous glucose solution, was prepared. The laboratory and large-scale tests of the activity of an insecticidal composition of the invention was conducted on domestic flies. for laboratory tests into the gauze-made boxes (10x10 cm, 6 boxes), there were placed 6-7-day flies of both sexes by 50 individuals per each box. Into 5 boxes there were placed Petri dishes containing the insecticidal composition of the invention. The death rate of flies was estimated-in 48 - 72 hours. A Petri dish containing a 5% aqueous solution of glucose was placed into the control box. The insecticidal activity of the composition, according to the invention, was tested in comparison with a known insecticidal composition containing 0,0-dimethyl-/1-hydroay-2,2-trichloroethyl/phosphonate.

[2] = Solubility in water and organic solvents; format: physicochemical; details: qualitative, solvents named
domestic flies [3] = experiment: Insecticidal activity, large-scale test in living and industrial premises; format: in vivo; details: 0.25% solution with 5% glucose solution, 2-3 dishes per 20 m2; 72 hours
Description: The large-scale tests of the activity of the insecticidal composition, according to the invention, was conducted on domestic flies in living and industrial premises. Petri dishes containing a 0.25% aqueous solution of the insecticide, according to the invention, added with a 5% glucose solution, were put at a rate of 2-3 dishes per 20 m2. The .activity of the composition of the invention was estimated by a direct count of dead insects in 72 hours or by using the adhesive tapes, counting the number of flies on the tape prior and after carrying out the test.

hepatitis B virus [4] = test system: hepatitis B virus
influenza A virus [5] = test system: influenza A virus
Rhyzoctonia violacea [6] = experiment: Fungicidal activity, field test on sprayed potato plots; format: in vivo
Verticillium albo-atrum [7] = experiment: as above; format: in vivo
Fusarium culmorum [8] = experiment: as above; format: in vivo
Description: (§1) In the field conditions potato plantations of 5 m^2 in size affected by Fusarium oxysporem, Fusarium moniliforme, Betrytis cinerea, Fusarium culmorum, Diplodia Verturia inaequalis, Rhyzoctonia aderholdii were sprayed by a fungicidal composition of the. invention.
(§2) For comparison, a similar spraying of the affected potato-plots was carried out using a. known fungicidal compositions.

Rhyzoctonia aderholdii [9] = experiment: as above; format: in vivo
Description: as §1, §2

Diplodia zeae [10] = experiment: as above; format: in vivo
Description: as §1, §2

Botrytis cinerea [11] = experiment: as above; format: in vivo
Description: as §1, §2

Fusarium moniliforme [12] = experiment: as above; format: in vivo
Description: as §1, §2

Verturia inaequalis [13] = experiment: as above; format: in vivo
Description: as §1, §2

Fusarium oxysporum [14] = experiment: as above; format: in vivo
Description: as §1, §2

Fusarium culmorum [15] = experiment: Fungicidal activity, laboratory test on potato-dextrose agar; format: cell-based; details: 0.01 % by mass of active principle
Description: (§3) Based on the compound, a fungicidal composition was prepared in the form of a 0.01% solution thereof in distilled water. A fungicidal activity of the compound, according to the invention, was tested for inhibition of vegetative fungi growth such as Fusarium oxyporum, Fusarium moniliforme, Botrytis cinerea, Fusarium culmorum, Diplodia zeae, Rhyzoctonia violacea, Verticillium alboartrum, Verturia inaequalis, Rhyzoctonia aderholdii affecting potato, sugar beet, cotton seeds. The tests were conducted either in laboratory or in field conditions. For tests, the composition of the invention containing-0.01 % by mass of an active principle was introduced into Petri dishes with a nutrient medium, specifically, potato-dextrose agar. The phytopathogenic fungi mycelium was plated on the Petri dishes with this agar culture. The phytopathogenic fungi were plated on control dishes with agar culture without adding the composition of the invention. The fungicidal action of the composition, according to the invention, was tested in comparison with the known fungicidal composition based on 2,3-dichloronaphthoquinone-1,4 (phygon), zinc N,N'-ethylene-bis-(dithiocarbamate) (zineb) and thiuram.

Rhyzoctonia aderholdii [16] = experiment: as above; format: cell-based; details: 0.01 % by mass of active principle
Description: as §3

Diplodia zeae [17] = experiment: as above; format: cell-based; details: 0.01 % by mass of active principle
Description: as §3

Botrytis cinerea [18] = experiment: as above; format: cell-based; details: 0.01 % by mass of active principle
Description: as §3

Verticillium albo-atrum [19] = experiment: as above; format: cell-based; details: 0.01 % by mass of active principle
Description: as §3

Rhyzoctonia violacea [20] = experiment: as above; format: cell-based; details: 0.01 % by mass of active principle
Description: as §3

Fusarium moniliforme [21] = experiment: as above; format: cell-based; details: 0.01 % by mass of active principle
Description: as §3

Verturia inaequalis [22] = experiment: as above; format: cell-based; details: 0.01 % by mass of active principle
Description: as §3

Fusarium oxysporum [23] = experiment: as above; format: cell-based; details: 0.01 % by mass of active principle
Description: as §3

influenza A virus [24] = experiment: microbe, parasite or virus in culture; set-up: species or system strain of influenza A1 virus
poliomyelitis virus = experiment: microbe, parasite or virus in culture; format: cell-based, poliomyelitis-II virus
hepatitis B virus [25] = experiment: Virucidal activity, suspension method under protein loading, counter-current immunoelectrophoresis

Row | Structure (SMILES) | solubility [2] | Inhibition of colony growth of phytopatogenic,fungi,% Rhyzoctonia violacea field (Rhyzoctonia violacea [6]) | Inhibition of colony growth of phytopathogenic fungi,% Verticillium albo-atrum field (Verticillium albo-atrum [7]) | Inhibition of colony growth of phytopatogenic,fungi,% Fusarium culmorum field (Fusarium culmorum [8]) | Inhibition of colony growth of phytopathogenic fungi,% Rhyzoctonia aderholdii field (Rhyzoctonia aderholdii [9]) | Inhibition of colony growth of phytopatogenic,fungi,% Diplidia zeae field (Diplodia zeae [10]) | Inhibition of colony growth of phyto-pathogenic fungi, % Botrytis cinerea field (Botrytis cinerea [11]) | Inhibition of colony growth of phyto-pathogenic fungi, % Fusarium moniliforme field (Fusarium moniliforme [12]) | Inhibition of colony growth of phytopathogenic fungi,% Verturia inaequalis field (Verturia inaequalis [13]) | Inhibition of colony growth of phyto-pathogenic fungi, % Fusarium oxysporum field (Fusarium oxysporum [14]) | Inhibition of colony growth of phytopatogenic,fungi,% Fusarium culmorum laboratory (Fusarium culmorum [15]) | Inhibition of colony growth of phytopathogenic fungi,% Rhyzoctonia aderholdii laboratory (Rhyzoctonia aderholdii [16]) | Inhibition of colony growth of phytopatogenic,fungi,% Diplidia zeae laboratory (Diplodia zeae [17]) | Inhibition of colony growth of phyto-pathogenic fungi, % Botrytis cinerea laboratory (Botrytis cinerea [18]) | Inhibition of colony growth of phytopathogenic fungi,% Verticillium albo-atrum laboratory (Verticillium albo-atrum [19]) | Inhibition of colony growth of phytopatogenic,fungi,% Rhyzoctonia violacea laboratory (Rhyzoctonia violacea [20]) | Inhibition of colony growth of phyto-pathogenic fungi, % Fusarium moniliforme laboratory (Fusarium moniliforme [21]) | Inhibition of colony growth of phytopathogenic fungi,% Verturia inaequalis laboratory (Verturia inaequalis [22]) | Inhibition of colony growth of phyto-pathogenic fungi, % Fusarium oxysporum laboratory (Fusarium oxysporum [23]) | other results
1 | O=C(N=P(OCCCl)(OCCCl)OCCCl)c1ccccc1 [Example 1, tris-(2-chloroethoxy)phosphazobenzoyl] | soluble in water, alcohols, toluene |  |  |  |  |  |  |  |  |  |  |  |  |  |  |  |  |  |  | Death of flies, % Tests laboratory (domestic flies [1]): 86%; Death of flies, % Tests large-scale (domestic flies [3]): 85%
2 | CC(C)(OP(=NC(=O)c1ccccc1)(OC(C)(C)C(Cl)(Cl)Cl)OC(C)(C)C(Cl)(Cl)Cl)C(Cl)(Cl)Cl [Example 2, tris-(dimethyl-2,2,2-trichloroethoxy)phosphazobenzoyl] | soluble in water, alcohols, acetone, benzene, toluene |  |  |  |  |  |  |  |  |  |  |  |  |  |  |  |  |  |  | Death of flies, % Tests laboratory (domestic flies [1]): 90%; Death of flies, % Tests large-scale (domestic flies [3]): 88%
3 | O=C(N=P(OC[C@@H](NC(=O)C(Cl)Cl)[C@H](O)c1ccc([N+](=O)[O-])cc1)(OC[C@@H](NC(=O)C(Cl)Cl)[C@H](O)c1ccc([N+](=O)[O-])cc1)OC[C@@H](NC(=O)C(Cl)Cl)[C@H](O)c1ccc([N+](=O)[O-])cc1)c1ccccc1 [Example 4, tris-d/-/-threo-3-para nitrophenyl--2-dichloroacetamido-3-hydroxypropoxy/phosphazobenzoyl] |  |  |  |  |  |  |  |  |  |  |  |  |  |  |  |  |  |  |  | inhibition of viral antigen titers, Hepatitis B virus (hepatitis B virus [4]; 1% solution in 0.85% sodium chloride, exposure 5, 30, 60 minutes): 100; inhibition of viral antigen titers, Influenza A virus (influenza A virus [5]; 1% solution): 100
4 | O=C(N=P(Nc1ccc(Cl)cc1[N+](=O)[O-])(Nc1ccc(Cl)cc1[N+](=O)[O-])Nc1ccc(Cl)cc1[N+](=O)[O-])c1ccc(Br)cc1 [Example 6, tris--(para-chloro -ortho-nitroanilido)phosphazo-para-bromobenzoyl] | soluble in water, acetone, alcohols, benzene | 100% | 100% | 69% | 100% | 100% | 100% | 100% | 100% | 100% | 70% | 100% | 100% | 100% | 100% | 100% | 100% | 100% | 100% | 
5 | O=C1C(Cl)=C(Cl)C(=O)c2ccccc21 [phygon, 2,3-dichloronaphthoquinone-1,4] |  | 33% | 66% | 45% | 55% | 81% | 32% | 32% | 61% | 30% | 57% | 54% | 71% | 38% | 63% | 34% | 35% | 58% | 35% | 
6 | O=S(=O)(NCl)c1ccccc1.[Na] [sodium-N-chloro-benzene sulf-amide, sodium N-chlorobenzene sulphonamide] |  |  |  |  |  |  |  |  |  |  |  |  |  |  |  |  |  |  |  | inhibition of viral antigen titers, Hepatitis B virus (hepatitis B virus [4]): 50; killing at 1 % (influenza A virus [24]; 0.25 h, read-out: Death of viruses (%) under exposure, Influenza A, 15 min): 0%; killing at 1 % (influenza A virus [24]; 0.5 h, read-out: Death of viruses (%) under exposure, Influenza A, 30 min): 12.5%; killing at 1 % (influenza A virus [24]; 1 h, read-out: Death of viruses (%) under exposure, Influenza A, 60 min): 25%; killing at 1 % (poliomyelitis virus; 10 min, read-out: Death of viruses (%) under exposure, Poliomyelitis, 10 min): 0%; killing at 1 % (poliomyelitis virus; 0.5 h, read-out: Death of viruses (%) under exposure, Poliomyelitis, 30 min): 12.5%; killing at 1 % (poliomyelitis virus; 1 h, read-out: Death of viruses (%) under exposure, Poliomyelitis, 60 min): 25%; killing at 1 % (hepatitis B virus [25]; 0.25 h, read-out: Death of viruses (%) under exposure, Hepatitis B, 15 min): 0%; killing at 1 % (hepatitis B virus [25]; 0.5 h, read-out: Death of viruses (%) under exposure, Hepatitis B, 30 min): 12.5%; killing at 1 % (hepatitis B virus [25]; 1 h, read-out: Death of viruses (%) under exposure, Hepatitis B, 60 min): 25%; inhibition of viral antigen titers, Influenza A virus (influenza A virus [5]): 50
7 | S=C([S-])NCCNC(=S)[S-].[Zn+2] [zineb, zinc N,N'-ethylene-bis-(dithiocarbamate)] |  | 100% | 78% | 54% | 100% | 100% | 98% | 62% | 98% | 59% | 57% | 100% | 100% | 100% | 80% | 100% | 60% | 100% | 58% | 
